Measured values: publication PMC2680961, “Homologous desensitization of signalling by the alpha (α) isoform of the human thromboxane A2 receptor: A specific role for nitric oxide signalling” (Biochimica et Biophysica Acta, 2007)
Where a chain is given by its changes, count along the chain named.

Legend:
[1] = target: T1, TPβ^WT (Homo sapiens, UniProt P21731); assay: [3H]SQ29,548 radioligand binding, Scatchard analysis, HEK.TPβ^WT
T1 construct: expressed in transfected cells
Procedure: (§1) Cells were harvested by centrifugation at 500×g at 4 °C for 5 min and washed three times with ice-cold Ca^2+/Mg^2+-free phosphate-buffered saline (PBS). TP radioligand binding assays were carried out at 30 °C for 30 min in 100 μl reactions in the presence of 0–40 nM [^3H] […] Protein determinations were carried out using the Bradford assay.
(§2) Radioligand binding and Scatchard analysis data were analysed using GraphPad Prisim V4.0 programme (GraphPad Software Inc., San Diego CA, USA). Statistical analyses were carried out using the unpaired Student's t test using the Statworks Analysis Package. p-values ≤ 0.01 indicated statistically significant differences.

[2] = target: T2, TPα^S331A (Homo sapiens, UniProt P21731, S331A); assay: [3H]SQ29,548 radioligand binding, Scatchard analysis, HEK.TPα^S331A
T2 construct: expressed in transfected cells
T2 sequence (P21731 1-343 S331A): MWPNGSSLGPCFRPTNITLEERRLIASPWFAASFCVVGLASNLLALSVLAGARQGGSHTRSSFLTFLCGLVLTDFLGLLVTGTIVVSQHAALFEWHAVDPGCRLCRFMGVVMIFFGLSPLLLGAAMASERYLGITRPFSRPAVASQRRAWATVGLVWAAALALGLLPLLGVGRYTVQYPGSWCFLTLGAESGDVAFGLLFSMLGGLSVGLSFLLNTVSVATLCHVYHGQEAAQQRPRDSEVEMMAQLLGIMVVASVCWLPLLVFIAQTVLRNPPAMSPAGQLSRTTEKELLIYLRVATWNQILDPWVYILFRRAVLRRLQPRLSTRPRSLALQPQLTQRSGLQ
Procedure: as §1, §2

[3] = target: T3, TPα^S145A (Homo sapiens, UniProt P21731, S145A); assay: Intracellular calcium mobilization, HEK.TPα^S145A cells; format: cell-based; conditions: for Δ[Ca2+]i, U46619-induced: HEK.TPα^S145A
T3 construct: expressed in transfected cells
T3 sequence (P21731 1-343 S145A): T2 sequence (P21731 1-343 S331A) with S145A, A331S
Procedure: Measurement of intracellular calcium mobilization ([Ca^2+]i) in FURA2/AM preloaded HEK 293 cell lines (2 × 10^6 cells/dish), each transiently co-transfected with pADVA (10 μg), and pCMV:Gαq (25 μg), was carried out as previously described. To investigate the effect of GRK2/βARK1 on TP-mediated [Ca^2+]i mobilization, HEK.TPα or HEK.TPβ cells (2 × 10^6 cells/dish) were co-transfected with pADVA (10 μg), pCMV:Gαq (25 μg) along with pRK5:βARK1^495–689 (25 μg), encoding a dominant negative form of GRK2/βARK1[39]. Approximately 48 h post-transfection, cells were harvested by scraping, washed twice in ice-cold PBS and resuspended in HBSSHB (modified Ca^2+/Mg^2+-free Hank's buffered salt solution, containing […], pH 7.67, 0.1% bovine serum albumin (BSA)) buffer at 10^7 cells/ml and incubated in the dark with 5 μM FURA2/AM for 45 min at 37 °C. […] For each measurement of [Ca^2+]i mobilization, aliquots of cells were diluted to 0.825 × 10^6 cells/ml in HBSSHB, 1 mM CaCl2 and FURA2 fluorescence was recorded (2 ml aliquots of cells) at 37^ °C with gentle stirring with a Perkin Elmer-Cetus LS50-B spectrofluorometer at excitation wavelengths of 340 nm and 380 nm and emission wavelength of 510 nm, respectively.
Cells were stimulated with the TP agonist U46619 (1 μM) and changes in [Ca^2+]i mobilization were monitored as a function of time. To assess agonist-mediated homologous desensitization, cells (0.825 × 10^6 cells/ml; 2 ml per assay) were stimulated with 1 μM U46619 (Primary stimulation) or, as a control, with the vehicle for 4 min; thereafter, cells were collected by centrifugation (900×g, 5 min); were washed twice in 2 ml HBSSHB, 1 mM CaCl2; and finally resuspended in 2 ml HBSSHB,1 mM CaCl2 and were left to recover over various time intervals (ranging from 0 to 60 min); thereafter, cells re-stimulated with 1 μM U46619 (Secondary stimulation) and changes in [Ca^2+]i mobilization were monitored as a function of time. […]

T1 sequence (P21731 1-407 isoform P21731-2): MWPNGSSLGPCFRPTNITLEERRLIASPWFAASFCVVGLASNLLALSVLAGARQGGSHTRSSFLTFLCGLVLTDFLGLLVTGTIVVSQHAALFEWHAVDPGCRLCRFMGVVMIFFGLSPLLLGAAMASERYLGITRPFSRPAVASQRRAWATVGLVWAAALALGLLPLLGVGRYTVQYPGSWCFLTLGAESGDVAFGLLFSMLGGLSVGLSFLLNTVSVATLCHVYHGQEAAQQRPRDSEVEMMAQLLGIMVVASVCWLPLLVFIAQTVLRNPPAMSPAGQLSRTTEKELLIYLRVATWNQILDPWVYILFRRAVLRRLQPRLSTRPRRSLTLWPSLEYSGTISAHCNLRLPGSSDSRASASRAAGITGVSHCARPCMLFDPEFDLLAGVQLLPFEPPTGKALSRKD

Bmax (pmol/mg protein ± S.E.M.) [1] [pmol/mg protein] | Bmax (pmol/mg protein ± S.E.M.) [2] [pmol/mg protein] | Δ[Ca2+]i, U46619-induced ([3]; primary 1 μM U46619 4 min) [nM] | Δ[Ca2+]i, U46619-induced ([3]; secondary 1 μM U46619 at 15 min) [nM] | secondary U46619 [Ca2+]i response relative to primary response ([3]; TPα^S145A) [%] | SMILES
3.64 ± 0.03 | 4.00 ± 0.04 | – | – | – | O=C(O)CCC/C=C\C[C@@H]1[C@H](CNNC(=O)Nc2ccccc2)[C@H]2CC[C@@H]1O2 [SQ29,548]
– | – | 157 ± 3.8 | 37 ± 4.2 | 24 | CCCCC[C@H](O)/C=C/[C@@H]1[C@@H](C/C=C\CCCC(=O)O)[C@H]2CO[C@@H]1C2 [U46619]
